A short description of the series: Solubility in water. The class given is physicochemical. From the text:
The psilocybin in the form Polymorph A or A′ has the general properties illustrated in Table 5 below: […]

Converted amounts (≈) assume the structure as drawn.

For the compound `CN(C)CCc1c[nH]c2cccc(OP(=O)(O)O)c12` [Psilocybin], the solubility was ~15 mg/mL (≈ 52.8 mM).

The values are drawn from US12721856B2, “Psilocybin compositions, methods of making and methods of using the same” (priority 2021, dated 2026).
